Measured values as given in ChEMBL document CHEMBL1201862, “PubChem BioAssay data set” (2004).
Activity calls are given as the source filed them. Cut-off read from the data, not from the text of the source, for most assays here: actives have a measured EC50 and inactives only a lower limit.

How the values were obtained:
[1] = target: T1, Calpain-2 catalytic subunit (Sus scrofa, UniProt P43367); assay: m-calpain protease blockers, concentration series – biochemical, fluorogenic peptide substrate, dose response (AID 1420); type: functional
T1 sequence (P43367 whole entry): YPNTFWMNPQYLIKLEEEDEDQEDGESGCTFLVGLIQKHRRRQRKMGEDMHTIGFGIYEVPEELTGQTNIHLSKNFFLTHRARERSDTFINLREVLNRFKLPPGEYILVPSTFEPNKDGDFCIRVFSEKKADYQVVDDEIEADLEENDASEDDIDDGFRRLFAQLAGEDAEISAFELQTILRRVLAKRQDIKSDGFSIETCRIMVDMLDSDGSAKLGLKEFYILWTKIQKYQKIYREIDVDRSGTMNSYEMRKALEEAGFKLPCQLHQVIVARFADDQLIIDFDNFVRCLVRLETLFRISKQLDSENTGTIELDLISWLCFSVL

[2] = target: Luciferin 4-monooxygenase (Photinus pyralis, UniProt P08659); assay: inhibition of purified Photinus pyralis luciferase – biochemical, luminescence, dose response (AID 1891)
[3] = Luminescence Cell-Based Dose Confirmation HTS to Identify Inhibitors of Platelet Dense Granule Release. [Related pubchem assays: 1663 (Primary HTS), 1678 (Summary of Project)]; type: functional
[4] = THP-1 cell cytotoxicity, dose response, cytotoxicity control for non-replicating M. tuberculosis project (AID 489025); type: functional
[5] = target: FAD-linked sulfhydryl oxidase ALR (Homo sapiens, UniProt P55789); assay: ALR-catalysed DTT oxidation blockers – biochemical, H2O2 detection, luminescence, cherry-pick, dose response (AID 493248)
[6] = viability of uninfected HEp-2 cells – cell-based, HTS, cytotoxicity control for RSV inhibitor project, dose response (AID 2410); type: functional; conditions: human respiratory syncytial virus
cells [7] = type: functional, cell-based
cells [8] = type: functional, cell-based; remark: listed apart in the source
INS1 = assay: INS-1E survival protection against cytokine death – cell-based, luminescence, retest, dose response (AID 449756); type: functional; conditions: Rattus norvegicus;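 note: cell death triggered by IL-1 beta plus TNF-alpha plus IFN-gamma mixture; protective hits raise ATP signal compared with cytokine alone wells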
[9] = target: T2, Heat shock factor protein 1 (Mus musculus, UniProt P38532); assay: decrease of HSF1-responsive luciferase luminescence – cell-based, NIH3T3, dose retest, confirmation (AID 2382); type: functional;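 note: NIH3T3 fibroblasts with HSF1-driven luciferase reporter stressed by proteasome inhibitor MG132; luminescence from HSF1-driven luciferase expression after 8 hours of MG132 stress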
T2 sequence (P38532 whole entry): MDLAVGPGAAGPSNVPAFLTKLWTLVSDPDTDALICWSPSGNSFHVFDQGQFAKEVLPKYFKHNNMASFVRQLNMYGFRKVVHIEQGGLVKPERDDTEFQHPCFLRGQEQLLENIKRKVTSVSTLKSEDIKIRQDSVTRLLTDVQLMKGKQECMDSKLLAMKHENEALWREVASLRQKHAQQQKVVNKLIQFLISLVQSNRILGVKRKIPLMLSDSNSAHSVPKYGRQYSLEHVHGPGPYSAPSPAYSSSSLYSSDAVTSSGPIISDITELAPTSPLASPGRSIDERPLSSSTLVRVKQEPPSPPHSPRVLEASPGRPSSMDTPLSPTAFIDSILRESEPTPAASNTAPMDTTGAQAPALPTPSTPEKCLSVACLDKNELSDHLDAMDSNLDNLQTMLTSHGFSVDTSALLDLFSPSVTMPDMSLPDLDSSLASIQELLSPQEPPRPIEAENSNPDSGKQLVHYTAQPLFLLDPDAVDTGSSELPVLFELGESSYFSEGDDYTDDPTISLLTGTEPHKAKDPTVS

[10] = target: T3, Polyadenylate-binding protein 1 (Homo sapiens, UniProt P11940); assay: MLLE binding blockers, Cy5 peptide tracer – biochemical, fluorescence polarization, Cy5-PAM2 peptide, secondary, miRNA deadenylation inhibitor project, dose response (AID 602260); type: functional; conditions: read-out: IC50_Mean
[11] = target: T3, Polyadenylate-binding protein 1; assay: MLLE domain peptide-binding blockers, IC50 – biochemical, fluorescence polarization, FITC-PAM2 peptide, dose response (AID 602259); type: functional; conditions: read-out: IC50_Mean
[12] = Luminescence Cell-Based Dose Confirmation HTS to Identify Activators of 5'UTR Stem-Loop Driven Alpha-Synuclein mRNA Translation in H4 Neuroglioblastoma Cells. [Related pubchem assays: 1829 (Project Summary), 1814 (Primary HTS)]; type: functional
[13] = Luminescence Cell-Based Dose Response HTS to Identify Activators of Luciferase Translation or Activity in H4 […] Cells. [Related pubchem assays: 1829 (Project Summary), 1814 (Primary HTS)]; type: functional
H4 = assay: Luminescence Cell-Based Dose Response HTS to Identify Activators of 5'UTR Stem-Loop Driven Prion Protein mRNA Translation in H4 Neuroglioblastoma Cells. [Related pubchem assays: 1829 (Project Summary), 1814 (Primary HTS)]; type: functional; conditions: Homo sapiens
[14] = Trypanosoma cruzi growth suppression in host cells – NIH3T3 host cells, beta-gal luminescence, confirmation (AID 2044); type: functional, cell-based;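 note: intracellular parasites grown in NIH/3T3 mouse fibroblasts as host cells; luminescent beta-galactosidase reporter signal from transgenic T. cruzi replicating inside host cells; inhibitors lower the luminescence signal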
[15] = NIH3T3 cell viability loss – ATP luminescence, mouse fibroblasts, counter-screen, dose response (AID 2010); type: functional, cell-based;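 note: cells exposed to compound for about 90 hours before reading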
[16] = NIH-3T3 fibroblast cytotoxicity, dose response, cytotoxicity control, cell-based, fluorescence, Alamar Blue, secondary assay (AID 2327); type: functional;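 note: NIH-3T3 mouse fibroblasts cultured with fluconazole at 8 µg/mL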
[17] = fluconazole-exposed Candida albicans growth modulators – fluorescence, retest, confirmation (AID 2467); type: functional, cell-based
[18] = target: T4, Rac GTPase-activating protein 1 (Homo sapiens, UniProt Q9H0H5); assay: blockers of MgcRacGAP-driven Rac1 GTP hydrolysis – biochemical, ADP Hunter fluorescence, primary and confirmatory, confirmation (AID 624330); type: functional
T4 sequence (Q9H0H5 whole entry): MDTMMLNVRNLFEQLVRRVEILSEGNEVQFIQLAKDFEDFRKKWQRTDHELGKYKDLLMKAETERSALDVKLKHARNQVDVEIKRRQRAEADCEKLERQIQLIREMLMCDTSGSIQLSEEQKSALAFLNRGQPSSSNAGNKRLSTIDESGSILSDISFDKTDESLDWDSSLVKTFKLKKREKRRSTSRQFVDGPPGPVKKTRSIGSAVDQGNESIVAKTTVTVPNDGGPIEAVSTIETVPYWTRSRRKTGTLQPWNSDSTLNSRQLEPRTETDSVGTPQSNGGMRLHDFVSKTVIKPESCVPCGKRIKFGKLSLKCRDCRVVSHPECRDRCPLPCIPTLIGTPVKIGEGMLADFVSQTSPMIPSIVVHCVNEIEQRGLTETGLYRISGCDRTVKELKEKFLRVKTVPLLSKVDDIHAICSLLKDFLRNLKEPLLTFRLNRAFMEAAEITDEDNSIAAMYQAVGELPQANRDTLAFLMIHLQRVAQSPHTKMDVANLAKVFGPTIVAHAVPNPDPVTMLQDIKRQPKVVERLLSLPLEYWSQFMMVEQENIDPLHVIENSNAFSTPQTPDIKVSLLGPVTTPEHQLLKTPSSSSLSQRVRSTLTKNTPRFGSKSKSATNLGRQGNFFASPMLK

Chain of FAD-linked sulfhydryl oxidase ALR (P55789 whole entry): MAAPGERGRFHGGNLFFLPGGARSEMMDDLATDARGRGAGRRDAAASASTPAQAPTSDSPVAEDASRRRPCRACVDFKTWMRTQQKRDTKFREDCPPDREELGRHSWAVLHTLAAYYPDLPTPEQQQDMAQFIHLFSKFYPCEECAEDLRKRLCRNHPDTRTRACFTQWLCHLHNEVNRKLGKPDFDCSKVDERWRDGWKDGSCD
Chain of Luciferin 4-monooxygenase (P08659 whole entry): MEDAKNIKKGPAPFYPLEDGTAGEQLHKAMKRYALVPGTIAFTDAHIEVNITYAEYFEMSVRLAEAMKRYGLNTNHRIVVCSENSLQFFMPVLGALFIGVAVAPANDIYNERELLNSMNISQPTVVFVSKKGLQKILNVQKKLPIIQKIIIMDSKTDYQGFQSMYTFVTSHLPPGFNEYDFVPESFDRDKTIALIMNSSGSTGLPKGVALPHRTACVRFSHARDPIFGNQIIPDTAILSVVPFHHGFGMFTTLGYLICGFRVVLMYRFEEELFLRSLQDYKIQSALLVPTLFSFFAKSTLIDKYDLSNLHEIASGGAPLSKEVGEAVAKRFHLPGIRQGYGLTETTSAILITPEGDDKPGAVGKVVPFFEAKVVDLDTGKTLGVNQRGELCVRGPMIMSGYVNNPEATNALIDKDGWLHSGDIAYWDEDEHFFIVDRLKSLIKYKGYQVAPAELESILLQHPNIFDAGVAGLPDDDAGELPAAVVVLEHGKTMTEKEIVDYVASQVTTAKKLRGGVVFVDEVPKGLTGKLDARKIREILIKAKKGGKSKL
T3 sequence (P11940 whole entry, the tested form may be a part): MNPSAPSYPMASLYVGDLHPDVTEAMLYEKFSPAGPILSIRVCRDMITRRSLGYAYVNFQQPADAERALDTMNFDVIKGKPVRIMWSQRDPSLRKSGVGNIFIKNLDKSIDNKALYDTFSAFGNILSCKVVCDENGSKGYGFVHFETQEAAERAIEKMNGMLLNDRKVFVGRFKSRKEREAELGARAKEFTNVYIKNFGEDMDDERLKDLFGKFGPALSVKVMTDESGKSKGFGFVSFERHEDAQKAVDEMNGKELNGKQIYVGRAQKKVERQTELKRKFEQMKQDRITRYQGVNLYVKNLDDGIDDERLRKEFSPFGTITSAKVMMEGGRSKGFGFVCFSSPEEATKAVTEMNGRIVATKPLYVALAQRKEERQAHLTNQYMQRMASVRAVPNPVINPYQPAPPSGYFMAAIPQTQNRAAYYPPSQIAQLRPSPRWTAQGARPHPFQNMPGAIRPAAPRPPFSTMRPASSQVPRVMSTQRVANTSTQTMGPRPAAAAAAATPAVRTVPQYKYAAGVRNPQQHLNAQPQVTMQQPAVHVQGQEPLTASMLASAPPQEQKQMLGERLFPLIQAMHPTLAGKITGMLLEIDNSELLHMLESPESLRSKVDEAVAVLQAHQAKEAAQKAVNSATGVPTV

CCCCN1C(=O)NC(=O)/C(=C(\C)NCCc2ccccc2)C1=O
IC50 [1]: 17.7 µM (not active)

COc1cccc(-n2c(SCC(=O)OC(C)C)nnc2-c2cccnc2)c1
IC50 [1]: > 50 µM (not active)

CCCOC(=O)Nc1ccc(C(N)=O)cc1
EC50 [2]: > 112 µM (not active) | EC50 [3]: > 112 µM (not active)

O=C(N/N=C\c1ccccc1OCc1ccccc1)c1ccco1
CC50 [4]: 39.6 µM (active)

Nc1ccc2oc3ccc(N)cc3c(=O)c2c1
AC50 [5]: 1.07 µM (active)

CC(C)(C)c1ccc(C(=O)Nc2cccc([N+](=O)[O-])c2)cc1
CC50 [6]: 5.38 µM (active) | IC50 [1]: 2.13 µM (not active)

Cc1ccc(Nc2c3c(nc4ccccc24)CCC3)cc1
EC50 (cells [7]): > 350 µM (not active) | EC50 (cells [8]): > 350 µM (not active) | AC50 (INS1): 8.95 µM (active)

O=C(NCc1nc2ccccc2[nH]1)c1c(F)c(F)c(F)c(F)c1F
EC50 (cells [7]): > 350 µM (not active) | EC50 (cells [8]): > 350 µM (not active)

Nc1cc(S(=O)(=O)N2CCCCC2)ccc1Oc1ccccc1
IC50 [1]: 20.8 µM (not active)

Cn1c(=O)c2c(ncn2CC(=O)Nc2cccc(S(=O)(=O)Nc3ccccc3F)c2)n(C)c1=O
EC50 [9]: > 195 µM (not active) | IC50 [10]: > 66 µM (inactive) | IC50 [11]: > 66 µM (inactive)

Sc1nncn1/N=C/c1cccc(Oc2ccccc2)c1
AC50 [5]: 2.09 µM (active)

CCCCNC(=O)c1cc(-c2ccc(F)cc2)on1
EC50 [12]: 11.9 µM (active) | EC50 [13]: 24.3 µM (active) | EC50 (cells [7]): 8.85 µM (active) | EC50 (H4): 13.1 µM (active) | EC50 (cells [8]): 45 µM (active)

CCCn1c(CCC(=O)O)ccc1-c1cccs1
AC50 [5]: 8.5 µM (active)

O/N=C(\c1ccc2c(c1)OCCO2)C1CCCCC1
IC50 [1]: 25.1 µM (not active)

CCOc1ccc(NC(O)=C2C(=O)NC(=O)NC2=O)cc1
EC50 [2]: 1.42 µM (active) | EC50 [3]: 9.93 µM (active)

COc1cccc(OC)c1C(=O)Nc1ccc(N2CCCCC2)cc1
AC50 [5]: 7.85 µM (active)

Cn1c(N)c(C(=O)COC(=O)c2ncc(Cl)c(Cl)c2Cl)c(=O)n(C)c1=O
IC50 [1]: 9.79 µM (active)

COc1cccc(-c2nnc(S)n2Cc2ccco2)c1OC
AC50 [5]: 3.65 µM (active)

COc1ccc(Oc2nc(-c3ccccc3)ncc2S(=O)(=O)c2ccccc2)cc1
EC50 [2]: > 112 µM (not active) | EC50 [3]: > 112 µM (not active)

S=C(NCc1ccc(Cl)cc1)NC1CCN(Cc2ccccc2)CC1
EC50 [14]: 2.86 µM (active) | IC50 [1]: 18.6 µM (not active) | EC50 [15]: > 30 µM (not active)

CC1(C)C2CCC1(C)C(OCC[N+](C)(C)CC(=O)OC1CCCCC1)C2 (configuration not stated)
EC50 [16]: > 150 µM (inactive) | EC50 [17]: 0.743 µM (active)

O=[N+]([O-])c1ccc(NCc2ccccc2)nc1
IC50 [1]: 34.1 µM (not active)

CC(=O)c1cccc(NC(=O)CSC(=O)c2ccccc2)c1
EC50 (cells [7]): > 350 µM (not active) | EC50 (cells [8]): > 350 µM (not active)

COC(=O)c1cn(C)c2ccc(S(=O)(=O)N3CCCCC3)cc2c1=O
EC50 (cells [7]): > 350 µM (not active) | EC50 (cells [8]): > 350 µM (not active)

O=C1CC(SC(=NCc2ccc3c(c2)OCO3)Nc2ccccc2)C(=O)N1c1ccccc1 (configuration not stated)
IC50 [1]: > 50 µM (not active)

Fc1ccc(F)c(C2=NN=C(NCC3CCCO3)SC2)c1 (configuration not stated)
IC50 [10]: > 66 µM (inactive) | IC50 [11]: > 66 µM (inactive)

Cc1ccc(-c2ccc(/C=N/NC(=O)CN3CCCC3)o2)cc1Cl
CC50 [4]: 37.8 µM (active)

Cc1c(N=C(S)NNC(=O)CCC(=O)O)c(=O)n(-c2ccccc2)n1C
EC50 [2]: > 112 µM (not active) | EC50 [3]: > 112 µM (not active)

Cc1ccc(CN2[C@@H](CC(C)C)COCCS2(=O)=O)cc1
EC50 (cells [7]): > 350 µM (not active) | EC50 (cells [8]): 72.7 µM (active)

COc1ccccc1C(=O)Oc1ccccc1C(=O)Nc1ccccc1
EC50 (cells [7]): > 350 µM (not active) | EC50 (cells [8]): 16.1 µM (active)

COCCN(C(=O)CSc1nnc(-c2cccc(C)c2)n1C)c1c(N)n(Cc2ccccc2)c(=O)[nH]c1=O
EC50 [16]: > 160 µM (inactive) | EC50 [17]: > 38 µM (not active)

O=C(OCCCCN1C(=O)c2ccccc2C1=O)c1ccc(S(=O)(=O)N2CCCC2)cc1
EC50 [2]: > 112 µM (not active) | EC50 [3]: > 112 µM (not active)

O=C(CNCc1ccco1)Nc1ccc(N2CCCCCC2)cc1
AC50 [5]: 0.224 µM (active) | IC50 [18]: 84.4 µM (active)

CCCCc1nc2sc3c(O)ncnc3c2c2c1CCCC2
EC50 [2]: > 112 µM (not active) | EC50 [3]: > 112 µM (not active)

C=C(C)CC1Nc2ccccc2NC1CC(=C)C (configuration not stated)
AC50 [5]: 5.56 µM (active)

O=C(CCCc1ccccc1)Nc1nnc(C(F)(F)F)s1
EC50 [2]: > 112 µM (not active) | EC50 [3]: > 112 µM (not active)

O=C(CSCc1ccco1)c1cccs1
EC50 [2]: > 112 µM (not active) | EC50 [3]: > 112 µM (not active)

O=C(c1ccco1)N1CCN(Cc2nc(-c3cccs3)no2)CC1
EC50 [2]: > 112 µM (not active) | EC50 [3]: > 112 µM (not active)
